# Experiments:
# Assay type in all cases: biochemical
# Conditions in all cases: HTRF method
# [1] = target: Ret M918T (Homo sapiens (Human), UniProt P07949, M918T); test: HTRF kinase inhibition assay, Ret M918T
# Source text: (§1) • 1. […] 1) • 18) Echo (Labcyte, 550) • 3.
# (§2) [formula] • Ratiopositive control: average of CEP-32496 readings in all positive control wells • Rationegative control: average of DMSO readings in all negative control wells • Wherein, the chemical name of CEP-32496 is: N-[3-[(6,7-dimethoxy-4-quinazolinyl)oxy]phenyl]-N′-[5-(2,2,2-trifluoro-1,1-dimethylethyl)-3-isoxazolyl]urea. • 4.3 Calculation of the IC50 and Drawing of the inhibition curve of the compound: • The IC50 (half inhibitory concentration) of the compound was obtained using the following non-linear fitting formula: Data analysis was performed using Graphpad 6.0 software. Y=Bottom+(Top−Bottom)/(1+10^((Log IC50−X)*Hill Slope)) • X: compound concentration log value Y: inhibition, % • 5.
# [2] = target: Ret V804M (Homo sapiens (Human), UniProt P07949, V804M); test: HTRF kinase inhibition assay, Ret V804M
# Source text: as §1, §2
# [3] = target: Ret V804L (Homo sapiens (Human), UniProt P07949, V804L); test: HTRF kinase inhibition assay, Ret V804L
# Source text: as §1, §2
# [4] = target: CCDC6-RET (Homo sapiens (Human), UniProt P07949+Q16204); test: HTRF kinase inhibition assay, CCDC6-RET
# Source text: as §1, §2
# [5] = target: Ret wt (Homo sapiens (Human), UniProt P07949); test: HTRF kinase inhibition assay, Ret wt
# Source text: as §1, §2
# Chain of Ret V804L (P07949 29-1114 V804L): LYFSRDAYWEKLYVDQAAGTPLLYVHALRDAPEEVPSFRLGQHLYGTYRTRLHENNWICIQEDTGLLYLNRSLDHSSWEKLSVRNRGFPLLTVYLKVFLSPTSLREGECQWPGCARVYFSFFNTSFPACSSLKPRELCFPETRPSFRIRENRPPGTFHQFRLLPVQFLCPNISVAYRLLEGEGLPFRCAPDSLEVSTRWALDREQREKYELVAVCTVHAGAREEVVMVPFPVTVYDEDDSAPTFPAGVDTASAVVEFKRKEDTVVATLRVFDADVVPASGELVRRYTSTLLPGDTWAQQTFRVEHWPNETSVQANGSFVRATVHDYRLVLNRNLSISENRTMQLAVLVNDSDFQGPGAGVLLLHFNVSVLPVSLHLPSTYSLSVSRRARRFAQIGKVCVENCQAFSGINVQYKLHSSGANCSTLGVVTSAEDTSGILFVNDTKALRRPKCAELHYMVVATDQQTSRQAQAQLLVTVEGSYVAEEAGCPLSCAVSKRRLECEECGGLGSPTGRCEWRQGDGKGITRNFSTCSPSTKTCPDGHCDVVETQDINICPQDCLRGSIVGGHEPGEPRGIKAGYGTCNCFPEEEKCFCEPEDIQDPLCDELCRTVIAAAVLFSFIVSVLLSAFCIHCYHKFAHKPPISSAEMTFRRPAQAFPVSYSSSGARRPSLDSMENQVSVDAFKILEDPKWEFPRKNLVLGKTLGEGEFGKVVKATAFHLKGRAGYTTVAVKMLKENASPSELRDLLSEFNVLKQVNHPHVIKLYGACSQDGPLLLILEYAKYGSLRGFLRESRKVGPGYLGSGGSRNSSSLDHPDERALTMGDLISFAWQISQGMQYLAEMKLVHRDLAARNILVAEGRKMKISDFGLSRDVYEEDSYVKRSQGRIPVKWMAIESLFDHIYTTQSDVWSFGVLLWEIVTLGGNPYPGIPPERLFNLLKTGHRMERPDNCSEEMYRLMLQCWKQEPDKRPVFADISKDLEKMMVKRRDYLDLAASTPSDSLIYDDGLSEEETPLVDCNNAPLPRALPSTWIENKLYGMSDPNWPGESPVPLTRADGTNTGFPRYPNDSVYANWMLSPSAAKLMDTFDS
# Chain of Ret V804M (P07949 29-1114 V804M): as the sequence (P07949 29-1114 V804L) above, with L776M counted along it
# Chain of Ret M918T (P07949 29-1114 M918T): as the sequence (P07949 29-1114 V804L) above, with L776V, M890T counted along it
# Chain of Ret wt (P07949 29-1114): as the sequence (P07949 29-1114 V804L) above, with L776V counted along it
# Chain of CCDC6-RET (P07949 other isoform, or with tags, fused parts or gaps): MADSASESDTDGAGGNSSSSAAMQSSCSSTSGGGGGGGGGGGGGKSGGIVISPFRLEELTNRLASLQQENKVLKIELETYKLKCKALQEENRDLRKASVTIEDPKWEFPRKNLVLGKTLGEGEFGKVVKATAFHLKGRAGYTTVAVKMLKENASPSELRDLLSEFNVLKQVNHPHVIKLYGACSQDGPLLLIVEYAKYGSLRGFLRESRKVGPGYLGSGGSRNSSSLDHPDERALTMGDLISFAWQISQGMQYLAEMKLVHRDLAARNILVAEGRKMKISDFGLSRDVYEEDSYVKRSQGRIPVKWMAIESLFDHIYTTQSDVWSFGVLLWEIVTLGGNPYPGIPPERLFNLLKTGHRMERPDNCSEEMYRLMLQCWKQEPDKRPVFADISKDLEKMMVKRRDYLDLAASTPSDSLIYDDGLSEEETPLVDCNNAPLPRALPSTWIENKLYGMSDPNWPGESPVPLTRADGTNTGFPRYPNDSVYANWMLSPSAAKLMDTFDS
Structure (SMILES),IC50 [1],IC50 [2],IC50 [3],IC50 [4],IC50 [5]
"Cn1cc(-c2cc(-c3ccc(N4CCN(C(=O)C#Cc5ccccc5)CC4)nc3)c3c(C#N)cnn3c2)cn1 [Example 1, 3-cyano-6-(1-methyl-1H-pyrazol-4-yl)-4-(6-(4-(3-phenylpropioloyl)piperazin-1-yl)pyridine-3-yl)pyrazolo[1,5-a]pyridine]",0.97 nM,5.53 nM,0.95 nM,0.87 nM,0.61 nM
"C#Cc1ccc(C(=O)N2CCN(c3ccc(-c4cc(-c5cnn(C)c5)cn5ncc(C#N)c45)cn3)CC2)cc1 [Example 3, 3-cyano-4-(6-(4-(4-ethynylbenzoyl)piperazin-1-yl)pyridin-3-yl)-6-(1-methyl-1H-pyrazol-4-yl)pyrazolo[1,5-a]pyridine]",0.7 nM,16.6 nM,0.3 nM,0.8 nM,0.27 nM
"C#Cc1cccc(C(=O)NC2(C)CCN(c3ccc(-c4cc(-c5cnn(C)c5)cn5ncc(C#N)c45)cn3)CC2)c1 [Example 4, N-(1-(5-(3-cyano-6-(1-methyl-1H-pyrazol-4-yl)pyrazolo[1,5-a]pyridin-4-yl)pyridin-2-yl)-4-methylpiperidin-4-yl)-3-ethynylbenzamide]",2.8 nM,2.3 nM,0.2 nM,0.6 nM,0.27 nM
"COc1ccc(C#CCN2C3CC2CN(c2ccc(-c4cc(-c5cnn(C)c5)cn5ncc(C#N)c45)cn2)C3)cn1 [Example 194, 4-(6-(6-(3-(6-methoxypyridin-3-yl)prop-2-yn-1-yl)-3,6-diazabicyclo[3.1.1]heptane-3-yl)pyridin-3-yl)-6-(1-methyl-1H-pyrazol-4-yl)pyrazolo[1,5-a]pyridin-3-carbonitrile]",0.62 nM,7.07 nM,0.23 nM,0.26 nM,0.68 nM
"COc1cncc(C#CCN2C3CC2CN(c2ccc(-c4cc(-c5cnn(C)c5)cn5ncc(C#N)c45)cn2)C3)c1 [Example 215, 4-(6-(6-(3-(5-methoxypyridin-3-yl)prop-2-yn-1-yl)-3,6-diazabicyclo[3.1.1]heptane-3-yl)pyridin-3-yl)-6-(1-methyl-1H-pyrazol-4-yl)pyrazolo[1,5-a]pyridin-3-carbonitrile]",0.183 nM,0.42 nM,0.06 nM,0.16 nM,0.16 nM
"C#CC#CCN1CCN(c2ccc(-c3cc(-c4cnn(C)c4)cn4ncc(C#N)c34)cn2)CC1 [Example 275, 6-(1-methyl-1H-pyrazol-4-yl)-4-(6-(4-(penta-2,4-diyn-1-yl)piperazin-1-yl)pyridine-3-yl)pyrazolo[1,5-a]pyridine-3-carbonitrile]",–,8.22 nM,–,–,0.58 nM
"C#CCNC1(C)CCN(c2ccc(-c3cc(-c4cnn(C)c4)cn4ncc(C#N)c34)cn2)CC1 [Example 277, 6-(1-methyl-1H-pyrazol-4-yl)-4-(6-(4-methyl-4-(prop-2-yn-1-ylamino)piperidin-1-yl)pyridin-3-yl)pyrazolo[1,5-a]pyridine-3-carbonitrile]",–,10.3 nM,–,–,1.38 nM
"C#Cc1ccc(OC2CN(c3ccc(-c4cc(-c5cnn(C6CC6)c5)cn5ncc(C#N)c45)cn3)C2)cn1 [Example 280, 6-(1-cyclopropyl-1H-pyrazol-4-yl)-4-(6-(3-((6-ethynylpyridin-3-yl)oxy)azetidin-1-yl)pyridin-3-yl)pyrazolo[1,5-a]pyridine-3-carbonitrile]",–,0.92 nM,–,–,0.43 nM
"C#Cc1ccc(OC2CN(c3ccc(-c4cc(-c5c(C)noc5C)cn5ncc(C#N)c45)cn3)C2)cn1 [Example 282, 6-(3,5-dimethylisoxazol-4-yl)-4-(6-(3-((6-ethynylpyridin-3-yl)oxy)azetidin-1-yl)pyridin-3-yl)pyrazolo[1,5-a]pyridine-3-carbonitrile]",–,60.8 nM,–,–,2.9 nM
"C#Cc1ccc(OC2CN(c3ccc(-c4cc(-c5cnn(C(F)F)c5)cn5ncc(C#N)c45)cn3)C2)cn1 [Example 283, 6-(1-(difluoromethyl)-1H-pyrazol-4-yl)-4-(6-(3-((6-ethynylpyridin-3-yl)oxy)azetidin-1-yl)pyridin-3-yl)pyrazolo[1,5-a]pyridine-3-carbonitrile]",–,2.29 nM,–,–,0.39 nM
"C#Cc1ccc(O[C@H]2CCN(c3ccc(-c4cc(-c5cnn(C(F)F)c5)cn5ncc(C#N)c45)cn3)C2)cn1 [Example 284, (S)-6-(1-(difluoromethyl)-1H-pyrazol-4-yl)-4-(6-(3-((6-ethynylpyridin-3-yl)oxy)pyrrolidin-1-yl)pyridin-3-yl) pyrazolo[1,5-a]pyridine-3-carbonitrile]",–,23 nM,–,–,1.63 nM
"C#Cc1ccc(OC2CN(c3ccc(-c4cc(-c5cnn(C(F)F)c5)cn5ncc(C#N)c45)cn3)C2)cc1 [Example 285, 6-(1-(difluoromethyl)-1H-pyrazol-4-yl)-4-(6-(3-(4-ethynylphenoxy)azetidin-1-yl)pyridin-3-yl)pyrazolo[1,5-a]pyridine-3-carbonitrile]",–,0.71 nM,–,–,0.56 nM
"C#Cc1ccc(O[C@@H]2CCN(c3ccc(-c4cc(-c5cnn(C(F)F)c5)cn5ncc(C#N)c45)cn3)C2)cc1 [Example 286, (R)-6-(1-(difluoromethyl)-1H-pyrazol-4-yl)-4-(6-(3-(4-ethynylphenoxy)pyrrolidin-1-yl)pyridin-3-yl)pyrazolo[1,5-a]pyridine-3-carbonitrile]",–,0.85 nM,–,–,0.85 nM
"C#Cc1ccc(OC2CN(c3ccc(-c4cc(-c5cnn(C)c5)cn5ncc(C#N)c45)cn3)C2)cn1 [Example 287, 4-(6-(3-((6-ethynylpyridin-3-yl)oxy)azetidin-1-yl)pyridin-3-yl)-6-(1-methyl-1H-pyrazol-4-yl) pyrazolo[1,5-a]pyridine-3-carbonitrile]",–,0.2 nM,–,–,0.13 nM
